Several values for one entry are separate records, joined by “and”; a condition that tells them apart may be missing. Equal values may be shown once. Entries after “also recorded” stand apart in the source; their conditions may differ. Read-outs that look alike come from different tables or passages of the source.
Tests used:
RSV type A = experiment: Antiviral panel: RSV type A (MA-104); format: cell-based
[1] = rat, in vivo
Influenza B = experiment: Antiviral panel: Influenza B (MDCK); format: cell-based
[2] = monkey, in vivo, 2000 mg/kg
bone marrow cells = experiment: Mouse micronucleus assay; format: in vivo; conditions: single oral dose up to 2000 mg/kg, male and female mice
Experimental: L-dC was tested for its potential to induce micronucleated polychromatic erythrocytes (MPCE) in the bone marrow cells of male and female mice. L-dC at concentrations of 500, 1000, and 2000 mg/kg and positive and negative controls were tested. Study […] as a single dose. Two harvests approximately 24 and 48 hours after L-dC or negative control administration were performed, and a single harvest approximately 24 hours after positive control administration was performed. Five male and five female mice per dose group per harvest time were used. The percentage of polychromatic erythrocytes (PCE) and MPCE frequency were determined for each timepoint.

WHV [3] = experiment: Woodchuck model of chronic hepatitis B infection, 12 weeks oral; conditions: 1 mg/kg/day orally, woodchucks
Experimental: WHV DNA and body weight were measured on Days 0, 1, 3, 7, 14, 21, 28, 42, 56, and 84 as well as on post-treatment Days 7, 14, 21, 28, 42, 56, 70, and 84. WHV DNA levels were determined by quantitative PCR. Appropriate samples for hematology, serum chemistries, WHV serology, and liver biopsy were collected pretreatment and on Day 84.

[4] = format: in vivo; conditions: woodchuck; for AUCt→24: t = […]; for Cmax: analyte = label, read-out: Cmax in plasma
DHBV = DHBV DNA synthesis in primary duck hepatocyte cultures; format: cell-based, duck hepatitis B virus; conditions: primary duck hepatocytes (PDH)
[5] = system: KB, human nasopharyngeal carcinoma
HBV = experiment: Anti-HBV activity in HBV-expressing 2.2.15 cells (HBV DNA reduction); conditions: 2.2.15 cells
[6] = system: cytosolic extracts of HepG2 cells; experiment: Steady state phosphorylation kinetics in HepG2 cytosolic extracts; format: biochemical, human
WHV [7] = conditions: 0.01-10 mg/kg/day orally, woodchucks
[8] = Single dose bioavailability of dival-L-dC (IV and oral) in cynomologus monkey; format: in vivo, cynomologus monkey (macaca fascicularis)
Source text: The drug was quantitated in plasma and urine with a liquid chromatography-mass spectrometry (LC-MS) technique.

Rhinovirus type 5 = experiment: Antiviral panel: Rhinovirus type 5 (KB); format: cell-based
Influenza A/H3N2 = experiment: Antiviral panel: Influenza A/H3N2 (MDCK); format: cell-based
cultured CHO cells = experiment: Chromosomal aberration assay; format: cell-based, Chinese hamster; conditions: with and without metabolic activation, 5000 μg/mL
[9] = rat
Experimental: The drug was detected and the concentration determined in plasma and urine using a reverse-phase HPLC technique. The data were analyzed by a non-modeling mathematical method and the AUCs derived by the linear trapezoidal rule.

[10] = system: CV-1, African green monkey kidney fibroblast cells
[11] = system: Daudi, Burkitt's B-cell lymphoma
[12] = Bioavailability of the prodrugs of L-dC in monkeys, with and without L-dT; conditions: oral
Influenza A/H1N1 = experiment: Antiviral panel: Influenza A/H1N1 (MDCK); format: cell-based
[13] = format: in vivo, rhesus monkey
Experimental: The pharmacokinetics of L-dC following oral administration in the rhesus monkey was determined. […] Blood samples for pharmacokinetic analysis were collected pre-dose and at 0.25, 0.5, 1, 2, 3, 6, 8 and 24 hours after dosing. Urine samples for pharmacokinetic analyses were collected via pan catch pre-dose and over the following intervals post-dose: 0-2, 2-4, 4-8 and 8-12 hours, and then at 12-hour intervals thereafter through 336 hours post-dose. The drug was detected and concentration determined using a reverse-phase HPLC technique.

[14] = Oral bioavailability of L-dC via dival-L-dC in cynomologus monkey (HPLC study); conditions: cynomolgus monkey, in vivo, po
Source text: The drug was quantitated in plasma and in urine using HPLC analysis.

HSV-2 = experiment: Antiviral panel: HSV-2 (HFF); format: cell-based
[15] = dival-L-dC 10 mg/kg oral, monkey
[16] = L-dC 10 mg/kg oral, rhesus monkey

For `Nc1ccn([C@@H]2C[C@@H](O)[C@H](CO)O2)c(=O)n1` [L-dC, 2′-deoxy-β-L-cytidine], the EC50 (RSV type A) was > 100000 nM, the Tlast [1] was 24 h and the “estimated terminal phase half-lives” value ([1]; 1000 mg/kg) was 9 to 17 h. For the same compound, the “estimated terminal phase half-lives” value ([1]; 2000 mg/kg) was 6 to 8 h, the AUClast ([1]; po, 2000 mg/kg/day) was 461 µg·h/mL and the EC50 (Influenza B) was > 100000 nM. The “estimated terminal phase mean half-lives” value [2] was 4 to 5 h, the micronucleus assay result (bone marrow cells) was “negative; also recorded: not clastogenic” and the “end-of-treatment liver biopsy histomorphology” value (WHV [3]) was “no histomorphological evidence of fatty changes; also recorded: no evidence of fatty change”. For the same compound, the CL ([4]; L-dC 10 mg/kg IV) was 6.5 mL/min/kg, the Tmax ([4]; L-dC 10 mg/kg IV) was 0 h and the Vd ([4]; L-dC 10 mg/kg IV) was 1.17 L/kg. It also gave a t1/2 ([4]; L-dC 10 mg/kg IV) of 2.85 h, an AUCt→24 ([4]; L-dC 10 mg/kg IV) of 174 µM·h and a Cmax ([4]; L-dC 10 mg/kg IV) of 112 µM. The “oral bioavailability F” value ([4]; L-dC 10 mg/kg PO vs IV) was 9.57%, the Tmax ([4]; L-dC 10 mg/kg PO) was 3 h and the t1/2 ([4]; L-dC 10 mg/kg PO) was 5.22 h. The AUCt→24 ([4]; L-dC 10 mg/kg PO) was 11.3 µM·h, the Cmax ([4]; L-dC 10 mg/kg PO) was 1.37 µM and the EC50 (DHBV) was 870 nM. The CC50 [5] was > 100000 nM, the EC90 (HBV; 10-fold reduction of HBV virion DNA levels (Table 25)) was 1100 ± 100 nM and the EC50 (HBV; read-out: EC50 for reduction in extracellular HBV DNA) was 240 nM. For the same compound, the EC50 (HBV; read-out: EC50 for reduction of intracellular HBV DNA replicative intermediates (RI)) was 510 nM and 500 nM, the EC90 (HBV; read-out: EC90 against HBV replication (extracellular HBV DNA)) was 1070 nM and 1060 nM and the Vmax of phosphorylation [6] was 1.12 mmol/min/mg protein. The “toxicity during four-week treatment and eight-week follow-up” value (WHV [7]) was “no drug-related toxicity; also recorded: no toxicity was observed”, the “share of drug excreted / recovered dose in urine, by analyte” value (“share of drug excreted / recovered dose” below) ([8]; IV dival-L-dC, analyte = label) was ~93% and the Cmax ([8]; Intravenous (10 mg/kg Dival-L-dC), analyte = label, read-out: Cmax of each metabolite) was 24.6 µM. For the same compound, the Cmax ([8]; Oral (10 mg/kg dival-L-dC), analyte = label, read-out: Cmax of each metabolite) was 8.26 µM, the “AUC0.25→8 of L-dC” value ([8]; dival-L-dC 10 mg/kg IV, monkey) was 19.8 µM·h and the “CL of L-dC” value ([8]; dival-L-dC 10 mg/kg IV, monkey) was 16.8 mL/min/kg. The “Vd of L-dC” value ([8]; dival-L-dC 10 mg/kg IV, monkey) was 2.46 L/kg, the “t1/2 of L-dC” value ([8]; dival-L-dC 10 mg/kg IV, monkey) was 1.73 h and the Cmax ([8]; dival-L-dC 10 mg/kg IV, monkey, read-out: Cmax of L-dC) was 24.6 µM. The “AUC0.25→8 of L-dC” value [8, 15] was 14.0 µM·h, the “Tmax of L-dC” value [8, 15] was 0.67 h and the “t1/2 of L-dC” value [8, 15] was 2.28 h. For the same compound, the “share of plasma drug levels at Cmax” value ([8]; oral dival-L-dC) was > 99%, the “share of drug excreted / recovered dose” value ([8]; oral dival-L-dC, analyte = label) was ~95% and the EC50 (Rhinovirus type 5) was > 100000 nM. For the same compound, the EC50 (Influenza A/H3N2) was > 100000 nM, the chromosomal aberrations (cultured CHO cells) was “no evidence of chromosomal aberrations” and the “AUC0.25→8 (table head AUC0-25-28)” value ([9]; L-dC 10 mg/kg IV) was 30100 µM·h. For the same compound, the CL ([9]; L-dC 10 mg/kg IV) was 24 mL/min/kg, the Tmax ([9]; L-dC 10 mg/kg IV) was 0 h and the Vd ([9]; L-dC 10 mg/kg IV) was 2.53 L/kg. For the same compound, the t1/2 ([9]; L-dC 10 mg/kg IV) was 1.21 h, the “oral bioavailability F” value ([9]; L-dC 10 mg/kg oral vs IV) was 15.4% and the “AUC0.25→8 (table head AUC0-25-28)” value ([9]; L-dC 10 mg/kg oral) was 4770 µM·h. The Tmax ([9]; L-dC 10 mg/kg oral) was 1.0 h, the t1/2 ([9]; L-dC 10 mg/kg oral) was 2.52 h and the CC50 [10] was > 100000 nM. The CC50 [11] was >50 µg/mL, the “% BA w/ L-dT” value ([12]; coadministered with 10 mg/kg L-dT) was 11.9 ± 1.7% and the “% BA (bioavailability of L-dC)” value ([12]; estimated relative to AUC of L-dC (oral dose)) was 16.4 ± 5.0%. The EC50 (Influenza A/H1N1) was > 100000 nM, the Tmax [13, 16] was 0.83 h and the renal clearance [13, 16] was 4.55 mL/min/kg. For the same compound, the t1/2 [13, 16] was 3.34 h, the oral bioavailability ([13]; L-dC oral, rhesus monkey) was ~16% and the “administered oral dose recovered in urine” value ([13]; after 48 hours) was 15%. For the same compound, the “share of drug excreted / recovered dose” value ([13]; oral L-dC, analyte = label) was ~77%, the “administered oral dose recovered in urine” value ([13]; within 8 hours) was “Approximately 8.5%” and the “share of drug excreted / recovered dose” value [14] was ~89%. For the same compound, the EC50 (HSV-2) was >100 µg/mL.

From US7585851B2, “3′-prodrugs of 2′-deoxy-β-L-nucleosides” (priority 2000, dated 2009)
